Results reported in patent US6958347B2, “Aminophenanthridinone and aminophenanthridine as NPY-5 antagonists” (Pfizer Inc., priority 2002, dated 2005).

Target: T1, Y1 (Homo sapiens, UniProt P25929)
T1 sequence (P25929 1-384): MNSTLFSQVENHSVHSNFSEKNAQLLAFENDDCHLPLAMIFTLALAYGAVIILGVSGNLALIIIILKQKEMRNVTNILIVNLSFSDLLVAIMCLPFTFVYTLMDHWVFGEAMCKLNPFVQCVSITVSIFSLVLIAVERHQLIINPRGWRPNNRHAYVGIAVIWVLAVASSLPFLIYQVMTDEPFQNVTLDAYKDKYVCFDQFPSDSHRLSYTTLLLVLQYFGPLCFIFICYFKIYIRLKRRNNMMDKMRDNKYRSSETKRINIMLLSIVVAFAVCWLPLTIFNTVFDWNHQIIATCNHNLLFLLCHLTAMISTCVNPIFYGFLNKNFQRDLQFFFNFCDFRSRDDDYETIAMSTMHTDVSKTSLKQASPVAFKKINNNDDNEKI
Assay: Endogenous NPY response of host Bowes melanoma cells (low levels of Y1 responses)
Conditions: 10 uM; human Bowes melanoma cells (HMCB)

block of the endogenous NPY response: completely blocks
Compound: NC(N)=NCCC[C@@H](NC(=O)C(c1ccccc1)c1ccccc1)C(=O)NCc1ccc(O)cc1 [BIBP3226]
